Laboratory results from patent US20230321067A1, “DOSING REGIMEN COMPRISING 3-(1-OXOISOINDOLIN-2-YL)PIPERIDINE-2,6-DIONE DERIVATIVES” (Novartis AG, priority 2020, published 2023).
“Also recorded” adds a separate entry of the source.

Assays:
IKZF2 [1] = test: IKZF2 degradation in primary cynomolgus monkey PBMCs; type: cell-based; details: primary monkey PBMCs in vitro
Text: Although the specific transcriptional targets of IKZF2 remain to be defined, IKZF2 binds to and represses transcription from the IL-2 promoter region (Baine 2013). […] Finally, an in vitro assay recapitulating hallmarks of T cell dysfunction/exhaustion, by sequential TCR stimulation of isolated primary human T cells, was used to test the hypothesis that […] would rescue the exhausted phenotype and enhance Teff cell activity. […] In addition to IKZF1, other known cereblon substrates including translation termination factor G1 to S phase transition 1 (GSPT1) are not degraded by I-57 (FIG. 1).
I-57 mediated degradation of IKZF2 was assessed in primary PBMCs obtained from rabbit, dog, pig, cynomolgus monkey, and human, and in primary splenocytes of mouse and rat. […] Species-specificity due to species specific alteration CRBN primary structure have previously been described with other compounds known to interact with the CRBN ubiquitin ligase complex to elicit protein specific degradation (Krönke et al, 2015).

IKZF2 [2] = test: Single oral dose PD in cynomolgus monkey: IKZF2 expression in T cells from PBMCs by flow cytometry; type: in vivo
Method: The PK/PD relationship of I-57 was examined in cynomolgus monkeys after a single oral dose of 0.01, 0.1 or 1 mg/kg. I-57 plasma concentration and IKZF2 expression (as determined by flow cytometry) in FOXP3+ T cells from PBMCs were determined (FIG. 4 and FIG. 5).
Decreased (percentage change) IKZF2 positive […] cells, as determined by flow cytometry, were detectable at 4h post dose in the 1 mg/kg and 0.1 mg/kg groups, reaching maximum at 12-24 hrs post-dose and maintaining this maximum for 12-24 hrs.

plasma protein = test: Plasma protein binding in vitro, monkey; type: in vitro ADME
Text: The binding to plasma protein of I-57 in vitro was moderate in all species, with an observed difference between rodents (73% in mouse, 76% in rat) and non-rodents (52% in dog and monkey, 54% in human). Blood-to-plasma ratios were in the range of 0.7-1.8 (human 1.1-1.3). […] Based on results with non-radiolabeled I-57 in the dog, a significant amount of unchanged I-57 was renally eliminated (˜20% of dose).

[3] = In vitro metabolism in liver microsomes and hepatocytes across species; type: in vitro ADME
Method: In vivo in the dog, very minor amounts of the N-dealkylation product and products derived from hydrolysis of the glutarimide moiety were detected in plasma. While the contribution of CYP-mediated oxidative metabolism to systemic clearance is unknown, a preliminary assessment of the enzymes involved was conducted using human recombinant CYPs in vitro.

IKZF2 [4] = molecular target: T1, IKZF2 (Homo sapiens, UniProt Q96SW2+Q9UKS7); test: IKZF2 in human Tregs (tumor, blood) by flow cytometry, hPBMC AdT model; type: in vivo, NSG mice with human PBMCs; parameters: endogenous in cells; host or cells: human lymphocytes (CD4+FOXP3+ Tregs; total tumor-infiltrating lymphocytes) from healthy-donor PBMC transferred into NSG mice
Method: The PK/PD relationship of I-57 was examined in the hPBMC AdT model system. Human PBMCs were adoptively transferred into female NSG mice harboring established MDA-MB231 xenografts (FIG. 6). This model was selected based on the observation that IKZF2 positive Tregs (CD4+FOXP3+) were readily identifiable in peripheral blood and infiltrated in the tumor xenografts.
The impact of I-57 on IKZF2 protein expression in human Tregs in the periphery and infiltrated in MDA-MB231 xenografts was assessed via flow cytometry at multiple time points after the last I-57 dose. […] Maximum effects were generally observed 4-16 h post dose. At a given dose level, the magnitude and duration of IKZF2 reduction in Tregs was generally consistent across tissues (tumor, spleen and blood).
Based on the data from this hPBMC AdT mouse model, unbound I-57 (73% percent plasma binding in the mouse) exposures (AUCinf) of 7, 30, 157 and 3474 ng*h/mL are required to achieve the reduction of IKZF2 positivity (via flow cytometry) in tumor Tregs by 31, 43, 56, and 75%, respectively. The relationship between the magnitude and duration of I-57-mediated IKZF2 degradation and subsequent modulation of therapeutically relevant downstream biology is not yet well understood.

IKZF2 [5] = molecular target: T1, IKZF2; test: IKZF2 in tumor-infiltrating lymphocytes by IHC, hPBMC AdT model; type: in vivo, NSG mice with human PBMCs; parameters: endogenous in cells; host or cells: human lymphocytes (CD4+FOXP3+ Tregs; total tumor-infiltrating lymphocytes) from healthy-donor PBMC transferred into NSG mice; details: 24 h post the 14th dose
Method: IKZF2 protein levels in total tumor-infiltrating lymphocytes were also assessed by immunohistochemistry (IHC) at 24 h post the 14th dose of 1, 3 or 30 mg/kg I-57. […] Overall, IKZF2 degradation assessed by IHC was generally consistent with our findings in Tregs by flow cytometry, though dose dependency was less apparent. Together, the data support the finding of profound I-57-mediated IKZF2 degradation in tumor-infiltrating lymphocytes (FIG. 8A and FIG. 8B).

T1 sequence (Q9UKS7 whole entry): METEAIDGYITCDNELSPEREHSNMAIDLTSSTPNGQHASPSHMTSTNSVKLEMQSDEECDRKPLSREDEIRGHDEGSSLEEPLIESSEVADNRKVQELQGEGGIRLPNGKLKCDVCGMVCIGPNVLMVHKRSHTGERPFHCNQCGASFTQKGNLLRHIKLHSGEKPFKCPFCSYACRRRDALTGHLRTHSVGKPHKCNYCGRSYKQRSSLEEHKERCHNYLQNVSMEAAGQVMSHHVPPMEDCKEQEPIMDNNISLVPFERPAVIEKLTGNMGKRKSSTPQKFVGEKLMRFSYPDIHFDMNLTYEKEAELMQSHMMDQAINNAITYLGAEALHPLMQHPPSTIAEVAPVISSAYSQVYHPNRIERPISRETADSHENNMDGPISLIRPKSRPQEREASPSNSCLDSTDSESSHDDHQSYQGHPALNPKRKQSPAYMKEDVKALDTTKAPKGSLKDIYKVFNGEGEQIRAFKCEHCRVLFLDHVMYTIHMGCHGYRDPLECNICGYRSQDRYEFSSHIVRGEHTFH
T1 sequence (Q96SW2 whole entry): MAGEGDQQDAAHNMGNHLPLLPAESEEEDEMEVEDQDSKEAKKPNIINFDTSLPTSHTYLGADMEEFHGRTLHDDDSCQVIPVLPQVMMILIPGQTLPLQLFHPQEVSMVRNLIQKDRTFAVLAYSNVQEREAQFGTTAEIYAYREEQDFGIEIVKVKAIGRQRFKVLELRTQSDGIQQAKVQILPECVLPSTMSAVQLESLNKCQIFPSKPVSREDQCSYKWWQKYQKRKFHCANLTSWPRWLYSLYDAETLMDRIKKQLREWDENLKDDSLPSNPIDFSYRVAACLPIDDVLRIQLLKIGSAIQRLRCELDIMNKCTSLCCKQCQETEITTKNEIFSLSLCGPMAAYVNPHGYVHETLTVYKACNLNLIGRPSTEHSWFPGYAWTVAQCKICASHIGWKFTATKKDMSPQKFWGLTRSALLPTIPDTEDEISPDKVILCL
T1 sequence (Q16531 whole entry partner): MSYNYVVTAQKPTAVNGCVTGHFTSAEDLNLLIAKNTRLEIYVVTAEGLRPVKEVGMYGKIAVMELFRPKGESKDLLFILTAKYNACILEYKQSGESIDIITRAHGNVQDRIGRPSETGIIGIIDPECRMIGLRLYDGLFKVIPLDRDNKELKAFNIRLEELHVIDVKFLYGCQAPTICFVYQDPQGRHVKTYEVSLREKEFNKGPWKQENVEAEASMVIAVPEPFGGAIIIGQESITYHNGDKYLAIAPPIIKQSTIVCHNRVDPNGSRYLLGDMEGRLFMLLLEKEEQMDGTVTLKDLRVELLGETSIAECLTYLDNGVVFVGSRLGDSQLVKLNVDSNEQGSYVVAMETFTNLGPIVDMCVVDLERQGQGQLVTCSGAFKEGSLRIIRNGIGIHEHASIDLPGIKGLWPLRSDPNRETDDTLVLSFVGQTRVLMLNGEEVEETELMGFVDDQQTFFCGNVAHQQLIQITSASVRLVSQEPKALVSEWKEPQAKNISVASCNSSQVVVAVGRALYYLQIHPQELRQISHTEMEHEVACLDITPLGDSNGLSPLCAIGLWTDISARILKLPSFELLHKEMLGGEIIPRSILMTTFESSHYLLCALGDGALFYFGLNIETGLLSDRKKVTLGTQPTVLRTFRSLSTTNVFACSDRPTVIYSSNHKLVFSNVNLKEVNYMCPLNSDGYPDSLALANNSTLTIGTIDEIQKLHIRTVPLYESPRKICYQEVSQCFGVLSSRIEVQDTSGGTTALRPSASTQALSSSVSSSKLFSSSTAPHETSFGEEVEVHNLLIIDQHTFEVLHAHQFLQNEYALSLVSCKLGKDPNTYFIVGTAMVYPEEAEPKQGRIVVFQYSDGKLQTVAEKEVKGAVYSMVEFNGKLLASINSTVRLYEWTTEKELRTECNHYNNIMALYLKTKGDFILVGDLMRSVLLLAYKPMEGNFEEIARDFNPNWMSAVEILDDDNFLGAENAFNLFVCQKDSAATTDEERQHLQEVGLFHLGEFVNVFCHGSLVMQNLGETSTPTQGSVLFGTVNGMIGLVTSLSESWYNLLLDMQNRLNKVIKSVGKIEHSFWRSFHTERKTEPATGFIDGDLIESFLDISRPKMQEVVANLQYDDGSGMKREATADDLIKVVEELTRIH

## O=C1CCC(N2Cc3cc(C4CCN(Cc5ccccc5)CC4)ccc3C2=O)C(=O)N1 (stereo not drawn) [Compound I-57, 3-(5-(1-benzylpiperidin-4-yl)-1-oxoisoindolin-2-yl)piperidine-2,6-dione]
IKZF2 [1]
  degradation of IKZF2: potent degradation; also recorded: Degradation was observed
IKZF2 [2]; single oral dose
  duration for which maximum decrease of IKZF2 positive cells was maintained: 12 to 24 h
IKZF2 [2]; single oral dose 1 mg/kg
  recovery of IKZF2 positive cells: total recovery was not achieved by day 7 post-dose
IKZF2 [2]; single oral dose, 1 mg/kg and 0.1 mg/kg groups, flow cytometry
  time at which decreased IKZF2 positive cells were detectable: 4 h
IKZF2 [2]; single oral dose, post-dose
  time to maximum decrease of IKZF2 positive cells: 12 to 24 h
Plasma protein
  binding to plasma protein: 52%
[3]
  metabolic stability: very stable and no appreciable metabolic turnover was observed
IKZF2 [4]; flow cytometry, unbound exposure (AUCinf) 7 ng*h/mL
  reduction of IKZF2 positivity in tumor Tregs: 31%
IKZF2 [4]; flow cytometry, unbound exposure (AUCinf) 30 ng*h/mL
  reduction of IKZF2 positivity in tumor Tregs: 43%
IKZF2 [4]; flow cytometry, unbound exposure (AUCinf) 157 ng*h/mL
  reduction of IKZF2 positivity in tumor Tregs: 56%
IKZF2 [4]; flow cytometry, unbound exposure (AUCinf) 3474 ng*h/mL
  reduction of IKZF2 positivity in tumor Tregs: 75%
IKZF2 [4]; post dose, hPBMC AdT model
  time of maximum effects on IKZF2 positive Tregs: 4 to 16 h
IKZF2 [4]; tumor and peripheral blood, after 14 daily doses, flow cytometry
  IKZF2 degradation (reduction of the percentage of IKZF2 positive Tregs): robust dose and exposure-dependent IKZF2 degradation
IKZF2 [5]; 30 mg/kg
  IKZF2 degradation in total tumor-infiltrating lymphocytes: approximately 85%
IKZF2 [5]; all dose levels (1, 3 or 30 mg/kg)
  IKZF2 levels in total tumor-infiltrating lymphocytes: Robust reduction in IKZF2 levels
